Laboratory results reported in article PMC6979384, “Characterization of the plant homeodomain (PHD) reader family for their histone tail interactions” (Epigenetics & Chromatin, 2020).
Each block holds one substance with its values, some of them ahead of it. Where no end group is shown, it is not given here.

Assays:
Test in all cases: Histone peptide microarray
Type in all cases: binding, human
ING1 = system: ING1
Outline: (§1)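 Binding of recombinant GST-fused PHD readers (0.5 μM) is detected on an array of 293 histone peptides, modified singly or in combination. An optimized array protocol is followed, and each intensity is the average of quadruplicate measurements with standard deviation.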

ING4 = system: ING4
Outline: as §1

PHRF1 (RP) = conditions: PHRF1 (RP)
Outline: as §1

AIRE (PP) = conditions: AIRE (PP)
Outline: as §1

ING5 = system: ING5
Outline: as §1

PHF23 = system: PHF23
Outline: as §1

PHF2 = system: PHF2
Outline: as §1

BPTF (PB) = conditions: BPTF (PB)
Outline: as §1

PHF13 = system: PHF13
Outline: as §1

KDM4C (TTP) = conditions: KDM4C (TTP)
Outline: as §1

KDM5A (3) = conditions: KDM5A (3)
Outline: as §1

CHD5 (PCC) = conditions: CHD5 (PCC)
Outline: as §1

KDM5A (1) = conditions: KDM5A (1)
Outline: as §1

PHF21A = conditions: PHF21A
Outline: as §1

SP140L = conditions: SP140L
Outline: as §1

CHD5 (PPCC) = conditions: CHD5 (PPCC)
Outline: as §1

MORC3 (CW) = conditions: MORC3 (CW)
Outline: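 Binding read as mean relative signal from 4 replicates; microarray held 293 synthetic histone peptides with single or combinatorial PTMs. Each GST-tagged PHD reader was applied at 0.5 μM using the optimized Petell protocol.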

ING3 = system: ING3
Outline: as §1

DIDO1 = system: DIDO1
Outline: as §1

DPF2 (PPC2W2) = conditions: DPF2 (PPC2W2)
Outline: as §1

PHF8 = system: PHF8
Outline: as §1

TRIM66 (PB) = conditions: TRIM66 (PB)
Outline: as §1

ING2 = system: ING2
Outline: as §1

KDM5B (3) = conditions: KDM5B (3)
Outline: as §1

TAF3 = system: TAF3
Outline: as §1

KDM7A = conditions: KDM7A
Outline: as §1

BAZ2B = conditions: BAZ2B
Outline: as §1

RAG2 = system: RAG2
Outline: as §1

MLL5 = system: MLL5
Outline: as §1

CHD4 (PPCC) = conditions: CHD4 (PPCC)
Outline: as §1

KDM5B (1) = conditions: KDM5B (1)
Outline: as §1

[1] = GST-tagged, arrays performed twice, n of 4
[2] = sheet "Array Heatmap", each array performed twice, total n = 4

- Array Heatmap value (peptide array binding signal) (ING1; ING1, GST-tagged, arrays performed twice, n of 4): 0.5984
- Array Heatmap value (peptide array binding signal) (ING4; ING4, GST-tagged, arrays performed twice, n of 4): 0.5392
- Array Heatmap value (peptide array binding signal) (PHRF1 (RP); [1]): 0.5134
- Array Heatmap value (peptide array binding signal) (AIRE (PP); [1]): 0.5817
- Array Heatmap value (peptide array binding signal) (ING5; ING5, GST-tagged, arrays performed twice, n of 4): 0.4262
- Array Heatmap value (peptide array binding signal) (PHF23; PHF23, GST-tagged, arrays performed twice, n of 4): 0.5933
- Array Heatmap value (peptide array binding signal) (PHF2; PHF2, GST-tagged, arrays performed twice, n of 4): 0.5309
- Array Heatmap value (peptide array binding signal) (BPTF (PB); [1]): 0.4048
- Array Heatmap value (peptide array binding signal) (PHF13; PHF13, GST-tagged, arrays performed twice, n of 4): 0.6948
- Array Heatmap value (peptide array binding signal) (KDM4C (TTP); [1]): 0.565
- Array Heatmap value (peptide array binding signal) (KDM5A (3); [1]): 0.4842
- Array Heatmap value (peptide array binding signal) (CHD5 (PCC); [1]): 0.8638
- Array Heatmap value (peptide array binding signal) (KDM5A (1); [1]): 0.5365
- Array Heatmap value (peptide array binding signal) (PHF21A; [1]): 0.5429
- Array Heatmap value (peptide array binding signal) (SP140L; [1]): 0.395
- Array Heatmap value (peptide array binding signal) (CHD5 (PPCC); [1]): 0.6452
- Array Heatmap value (peptide array binding signal) (MORC3 (CW); [1]): 0.4285
- Array Heatmap value (peptide array binding signal) (ING3; ING3, GST-tagged, arrays performed twice, n of 4): 0.5369
- Array Heatmap value (peptide array binding signal) (DIDO1; DIDO1, GST-tagged, arrays performed twice, n of 4): 0.7683
- Array Heatmap value (peptide array binding signal) (DPF2 (PPC2W2); [1]): 0.7519
- Array Heatmap value (peptide array binding signal) (PHF8; PHF8, GST-tagged, arrays performed twice, n of 4): 0.4227
- Array Heatmap value (peptide array binding signal) (TRIM66 (PB); [1]): 0.6947
- Array Heatmap value (peptide array binding signal) (ING2; ING2, GST-tagged, arrays performed twice, n of 4): 0.6161
- Array Heatmap value (peptide array binding signal) (KDM5B (3); [1]): 0.5225
- Array Heatmap value (peptide array binding signal) (TAF3; TAF3, GST-tagged, arrays performed twice, n of 4): 0.3233
- Array Heatmap value (peptide array binding signal) (KDM7A; [1]): 0.3929
- Array Heatmap value (peptide array binding signal) (BAZ2B; [1]): 0.5346
- Array Heatmap value (peptide array binding signal) (RAG2; RAG2, GST-tagged, arrays performed twice, n of 4): 0.271
- Array Heatmap value (peptide array binding signal) (MLL5; MLL5, GST-tagged, arrays performed twice, n of 4): 0.5838
- Array Heatmap value (peptide array binding signal) (CHD4 (PPCC); [1]): 0.6197
- Array Heatmap value (peptide array binding signal) (KDM5B (1); [1]): 0.6584
Substance: H2A.Z K4ac + K8ac + K12ac (1-19) (N-ac): H2AZ 1-19 (Ac-AGGKAGKDSGKAKTKAVSR; not fully specified (residue 4); UniProt P0C0S5 2-20, looked up, fragment)

Substance: H2A (10-25): H2A 10-25 (ARAKAKTRSSRAGLQF; UniProt P0C0S8 11-26, looked up, fragment)
- Array Heatmap value (peptide array signal) (ING1; ING1, sheet "Array Heatmap", each array performed twice, total n = 4): 0.5431
- Array Heatmap value (peptide array signal) (ING4; ING4, sheet "Array Heatmap", each array performed twice, total n = 4): 0.4661
- Array Heatmap value (peptide array signal) (PHRF1 (RP); [2]): 0.4431
- Array Heatmap value (peptide array signal) (AIRE (PP); [2]): 0.4997
- Array Heatmap value (peptide array signal) (ING5; ING5, sheet "Array Heatmap", each array performed twice, total n = 4): 0.3701
- Array Heatmap value (peptide array signal) (PHF23; PHF23, sheet "Array Heatmap", each array performed twice, total n = 4): 0.5294
- Array Heatmap value (peptide array signal) (PHF2; PHF2, sheet "Array Heatmap", each array performed twice, total n = 4): 0.4378
- Array Heatmap value (peptide array signal) (BPTF (PB); [2]): 0.3546
- Array Heatmap value (peptide array signal) (PHF13; PHF13, sheet "Array Heatmap", each array performed twice, total n = 4): 0.6145
- Array Heatmap value (peptide array signal) (KDM4C (TTP); [2]): 0.5121
- Array Heatmap value (peptide array signal) (KDM5A (3); [2]): 0.4414
- Array Heatmap value (peptide array signal) (CHD5 (PCC); [2]): 0.8105
- Array Heatmap value (peptide array signal) (KDM5A (1); [2]): 0.4831
- Array Heatmap value (peptide array signal) (PHF21A; [2]): 0.4834
- Array Heatmap value (peptide array signal) (SP140L; [2]): 0.3704
- Array Heatmap value (peptide array signal) (CHD5 (PPCC); [2]): 0.5571
- Array Heatmap value (peptide array signal) (MORC3 (CW); [2]): 0.3714
- Array Heatmap value (peptide array signal) (ING3; ING3, sheet "Array Heatmap", each array performed twice, total n = 4): 0.4796
- Array Heatmap value (peptide array signal) (DIDO1; DIDO1, sheet "Array Heatmap", each array performed twice, total n = 4): 0.6569
- Array Heatmap value (peptide array signal) (DPF2 (PPC2W2); [2]): 0.6893
- Array Heatmap value (peptide array signal) (PHF8; PHF8, sheet "Array Heatmap", each array performed twice, total n = 4): 0.3624
- Array Heatmap value (peptide array signal) (TRIM66 (PB); [2]): 0.5591
- Array Heatmap value (peptide array signal) (ING2; ING2, sheet "Array Heatmap", each array performed twice, total n = 4): 0.647
- Array Heatmap value (peptide array signal) (KDM5B (3); [2]): 0.4449
- Array Heatmap value (peptide array signal) (TAF3; TAF3, sheet "Array Heatmap", each array performed twice, total n = 4): 0.2598
- Array Heatmap value (peptide array signal) (KDM7A; [2]): 0.3832
- Array Heatmap value (peptide array signal) (BAZ2B; [2]): 0.4876
- Array Heatmap value (peptide array signal) (RAG2; RAG2, sheet "Array Heatmap", each array performed twice, total n = 4): 0.2471
- Array Heatmap value (peptide array signal) (MLL5; MLL5, sheet "Array Heatmap", each array performed twice, total n = 4): 0.5534
- Array Heatmap value (peptide array signal) (CHD4 (PPCC); [2]): 0.556
- Array Heatmap value (peptide array signal) (KDM5B (1); [2]): 0.668
